Source: US12521361B2, “Use of sodium octanoate in preparation of medicine for improving the efficacy of cardiopulmonary resuscitation and post-resuscitation multiple organ dysfunction” (ZHEJIANG UNIVERSITY, priority 2021, dated 2026)
Marks after values point to notes of the source that are not given here.

How the values were obtained:
Type in all cases: in vivo, domestic healthy male white pigs
[1] = test system: model of cardiac arrest and resuscitation; experiment: Outcomes of cardiopulmonary resuscitation and cardiac/cerebral perfusion in pig model of cardiac arrest and resuscitation
Experimental: (§1) • 1. All animals started fasting without water deprivation 12 h before experiment. • 2. The experimental animals were firstly intramuscularly injected with midazolam by 0.4-0.5 mg/kg for induced anesthesia, connected to an electrocardiogram monitor, then injected with propofol by 2 mg/kg through ear vein for general anesthesia, and afterwards maintained in an anesthetic state through infusing 4 mg/kg/h via the vein. • 3. Endotracheal intubation, monitoring of partial pressure of end-tidal carbon dioxide (ETCO2), and mechanical ventilation were rapidly carried out, wherein ventilation parameters were an intermittent positive pressure ventilation (IPPV) mode, with oxygen concentration of 21%, tidal volume of 10 ml/kg, and positive end-expiratory pressure of 0 mmHg, and ETCO2 was maintained in a normal physiological range of 35-40 mmHg by adjusting respiratory frequency. • 4. Right femoral artery and vein were exposed by operation, and Swan-Ganz catheters were respectively disposed into thoracic aorta and right atrium, wherein the former was used to monitor aortic blood pressure and collect an arterial blood sample, and the catheter main chamber of the latter was used to monitor right atrial pressure and body temperature and collect a venous blood sample, a catheter side chamber was used to infuse a therapeutic medicine, and calculate the level of coronary perfusion pressure (CPP) according to the difference between decompression diastolic aortic and time-coincident right atrial pressures. • 5. Right external jugular vein was exposed by operation, and an inducing electrode for ventricular fibrillation was disposed into right ventricle to induce ventricular fibrillation later. • 6. Right internal jugular vein and left femoral artery were exposed by operation, a central venous catheter and a thermodilution arterial catheter were respectively disposed therein, and the two were connected to a pulse indication continuous cardiac output (PiCCO) monitor, for monitoring the changes of cardiac function including stroke volume (SV) and global ejection fraction (GEF). • 7. Right carotid artery was exposed by operation, superficial fascia was stripped off, a carotid blood flow sensor was arranged, and then a blood flow velocity ultrasonic recorder was connected to monitor the change of carotid blood flow (CBF) in real time. • 8. The animals' forehead hair was shaved off, to expose forehead skin. The forehead skin was cleaned with alcohol, and attached with a cerebral oxygen monitoring probe, and then a cerebral oxygen monitor was attached to monitor the change of regional cerebral oxygen saturation (rSO2) in real time. • 9. The body temperature of the animals was maintained at a normal temperature of about 38° C. all the time by using a temperature control blanket.
• 1. Setting model conditions: 8 min of cardiac arrest and 8 min of cardiopulmonary resuscitation. • 2. Cardiac arrest method: inducing ventricular fibrillation by right ventricular electrode discharge, and observing for 8 min without intervention. • 3. Cardiopulmonary resuscitation method: • 1) continuous manual external chest compression; • 2) mechanical ventilation was carried out by using a respirator (parameters were IPPV (intermittent positive pressure ventilation) mode, with oxygen concentration of 100%, tidal volume of 7 ml/kg, respiratory frequency of 10 times/min, and positive end-expiratory pressure of 0 mmHg); • 3) adrenalin: when cardiopulmonary resuscitation was performed for 2 min, adrenalin was given by 20 μg/kg, thereafter, the same was repeated every 4 min; • 4) defibrillation: when cardiopulmonary resuscitation was performed for 8 min, 150 J electrical defibrillation was performed once; and • 5) if spontaneous circulation was not restored, cardiopulmonary resuscitation was immediately restarted for 2 min, followed by one time of defibrillation. This cycle was repeated for 5 times or less until the resuscitation was successful or declared to be failed. • 4. […]

[2] = test system: model of cardiac arrest and resuscitation; experiment: Cardiac function (PiCCO) and myocardial injury biomarker after resuscitation; conditions: 28.5 mg/kg i.v., P<0.05, FIG. 2
Experimental: as §1, with “Right carotid artery was exposed by operation, superficial fascia was stripped off, a carotid blood flow sensor was arranged, and then a blood flow velocity ultrasonic recorder was connected to monitor the change of carotid blood flow (CBF) in real time. • 8. The animals' forehead hair was shaved off, to expose forehead skin. The forehead skin was cleaned with alcohol, and attached with a cerebral oxygen monitoring probe, and then a cerebral oxygen monitor was attached to monitor the change of regional cerebral oxygen saturation (rSO2) in real time. • 9. The body temperature of the animals was maintained at a normal temperature of about 38° C. all the time by using a temperature control blanket.” left out

[3] = test system: model of cardiac arrest and resuscitation; experiment: Cerebral function (NDS) and brain injury biomarkers after resuscitation; conditions: 28.5 mg/kg i.v., P<0.05, FIG. 3
Experimental: (§2) • 1. Setting model conditions: 8 min of cardiac arrest and 8 min of cardiopulmonary resuscitation. • 2. Cardiac arrest method: inducing ventricular fibrillation by right ventricular electrode discharge, and observing for 8 min without intervention. • 3. […]
(§3) • 1. Changes in physiological indexes such as heart rate, blood pressure, ETCO2, CBF, rSO2, and body temperature were dynamically monitored throughout the experiment, and the survival outcomes of the animals at 4 h and 24 h were recorded. • 2. During cardiopulmonary resuscitation, the changes in CPP, ETCO2, CBF, and rSO2 were continuously monitored dynamically, and the duration of cardiopulmonary resuscitation, number of defibrillation, dosage of adrenaline, and rate of return of spontaneous circulation of various groups of animals were recorded. • 3. Before modeling and at 1 h, 2 h, and 4 h after resuscitation, the changes in cardiac function such as SV and GEF were periodically detected by using a PiCCO monitor. • 4. […] The blood plasma was frozen and stored in a −80° C. deep hypothermia freezer, and serum levels of myocardial injury biomarker cardiac troponin I (cTnI), brain injury biomarker neuron specific enolase (NSE) and S100B protein (S100B), renal and intestinal injury biomarker creatinine (Cr) and intestinal fatty acid-binding protein (iFABP) were detected by using an enzyme-linked immunosorbent assay at selected time. • 5. […]

[4] = test system: model of cardiac arrest and resuscitation; experiment: Renal and intestinal injury biomarkers after resuscitation; conditions: 28.5 mg/kg i.v., P<0.05, FIG. 4
Experimental: as §2, §3

[5] = test system: model of cardiac arrest and resuscitation; experiment: Cell apoptosis in heart, brain, kidney and intestine by TUNEL after resuscitation; conditions: at 24 h after resuscitation, 28.5 mg/kg i.v., P<0.05, FIG. 5
Experimental: as §2, §3

[6] = during cardiopulmonary resuscitation, almost all time points, 28.5 mg/kg i.v., P<0.05, FIG. 1
[7] = in words, 28.5 mg/kg i.v., P<0.05
[8] = pigs, sodium octanoate 28.5 mg/kg intravenously at start of CPR, n=8, P<0.05 vs CPR group
[9] = pigs, sodium octanoate 28.5 mg/kg intravenously at start of CPR, P<0.05 vs CPR group
[10] = starting 1 h after resuscitation

CCCCCCCC(=O)[O-].[Na+] [SO, sodium octanoate]
CBF (carotid blood flow) compared with the CPR group [1, 6]: obviously higher
CPP (coronary perfusion pressure) compared with the CPR group [1, 6]: obviously higher
ETCO2 (partial pressure of end-tidal carbon dioxide) compared with the CPR group [1, 6]: obviously higher
rSO2 (regional cerebral oxygen saturation) compared with the CPR group [1, 6]: obviously higher
Dosage of adrenaline compared with the CPR group [1, 7]: decreased
Duration of cardiopulmonary resuscitation compared with the CPR group [1, 7]: shortened
Number of defibrillation compared with the CPR group [1, 7]: reduced
Rate of return of spontaneous circulation compared with the CPR group [1, 7]: increased
Survival rates at 4 h and 24 h post-resuscitation compared with the CPR group [1, 7]: increased
Duration of cardiopulmonary resuscitation ([1]; pigs, 8 min cardiac arrest, sodium octanoate 28.5 mg/kg intravenously at start of CPR, n=8, P<0.05 vs CPR group): 8.00 ± 0.00 min
Dosage of adrenaline [1, 8]: 1.59 ± 0.08 mg
Number of defibrillation [1, 8]: 1.00 ± 0.00 n
4-h survival [1, 9]: 8/8^#
24-h survival [1, 9]: 8/8^#
Return of spontaneous circulation [1, 9]: 8/8^#
GEF (global ejection fraction) compared with the CPR group [2, 10]: obviously higher
SV (stroke volume) compared with the CPR group [2, 10]: obviously higher
Serum level of cTnI (cardiac troponin I) compared with the CPR group ([2]; starting 4 h after resuscitation): markedly lower
Serum level of S100B compared with the CPR group ([3]; at 1 h, 2 h, and 24 h after resuscitation): remarkably reduced
Serum level of NSE (neuron specific enolase) compared with the CPR group ([3]; at 4 h and 24 h after resuscitation): remarkably reduced
NDS (neurological deficit score) compared with the CPR group ([3]; at 24 h after resuscitation): remarkably lower
Serum levels of Cr (creatinine) compared with the CPR group ([4]; at 2 h and 24 h after resuscitation): remarkably reduced
Serum level of iFABP (intestinal fatty acid-binding protein) compared with the CPR group ([4]; at 24 h after resuscitation): remarkably reduced
Cell apoptosis of various organs (heart, brain, kidney, intestine; TUNEL) compared with the CPR group [5]: remarkably reduced
